A short description of one data set: in vitro. Particulars: human.
The subject of data set [1] is normal Human Adult Primary Epidermal Keratinocyte cell line. The settings on record: 72 h.
Protocol: (§3) For the Keratinocyte assay, normal Human Adult Primary Epidermal Keratinocyte cell line (ATCC PCS-200-011) was maintained in EPIUFE® Medium, with 60 μM calcium (Thermo MEPISOOCA) supplemented with Human Keratinocyte Growth Supplement, 100 U/mL penicillin, and 100 μg/mL streptomycin at 37° C. with 5% C02. For experiments, cells were seeded at 70% confluence per well in 100 μL of medium in 96-well plates. Reverse transfection was done on the cells using Lipofectamine 3000 (Life Technologies) with plasmids according to manufacturer's instructions. Briefly, 0.3 μL transfection reagent per 100 ng DNA were incubated with P3000 reagent and Opti-Mem prior to addition of cells. After 16 hours, medium was removed and replaced with dosing medium.
(§4) Each ARE tested was prepared in DMSO. Dosing medium was prepared at the time of treatment by serial diluting stock solution into medium. Ethanol concentrations in media never exceeded 0.1%. […] Negative control wells contained 100 L medium/well with 1 μL of ethanol/mL of medium and an appropriate amount of DMSO. […] Cells were incubated 72 hours at 37° C. without CO2.
For data set [2], the system named is MDA-kb2 mammary gland breast cancer cell line. The settings on record: human, 24 h.
Protocol: (§5) For the MDA-kb2 assay, MDA-kb2 mammary gland breast cancer cell line was maintained in L-15 media (Gibco) supplemented with 10% FBS, 100 U/mL penicillin, 100 μg/mL streptomycin, and 0.25 μg/mL amphotericin B at 37° C., without CO2. For experiments, cells were plated at 1.0×10^4 cells (50% confluence) per well in 100 μL of medium in 96-well plates. When cells were attached (after 6 hours), medium was removed and replaced with dosing medium containing 10% charcoal stripped FBS.
(§6) A 5α-Androstan-17β-ol-3-one (DHT) stock solution was prepared at 1,000× in ethanol. Each ARE tested was prepared in DMSO. Dosing medium was prepared at the time of treatment by serial diluting stock solution into medium. Ethanol concentrations in media never exceeded 0.1%. […] Negative control wells contained 100 μL medium/well with 1 μL of ethanol/mL of medium and an appropriate amount of DMSO. Each plate also contained 1.0 nM DHT with an ARE or without an ARE as a positive control. Cells were incubated 24 hours at 37° C. without CO2.
(§7) To assess for cell viability, cells were first visually examined under a phase-contrast microscope to record cell confluence, morphological changes, and presence of drug crystallization as well as to observe signs of cytotoxity such as, e.g., detachment, vacuolization, membrane degradation, or lack of phase brightness. After microscopic inspection, a Trypan Blue exclusion assay was performed to assess cell viability and cell number for each well. Each well was washed with 0.5 mL volume of PBS. 30 µL of Trypan Blue was added to each well for 5-10 minutes. Total cell number and total viable cell number will be counted from 1 number of fields per well, in triplicate.
For data set [3], the target named is androgen receptor (AR) (Homo sapiens, UniProt P10275). Briefly: MDA-kb2 AR luciferase reporter gene assay (1.0 nM DHT). It is filed as cell-based. Particulars: MDA-kb2, 24 h, read-out: Gene Activity Reduction. The method, then: This example illustrates how to determine the inhibitory activity of an ARE disclosed herein using a cell-based androgen receptor transcriptional reporter assay using an engineered cell line.
(§1) Each ARE tested was prepared in DMSO. […] Ethanol concentrations in media never exceeded 0.1%.
(§2) To assess ARE-mediated inhibition, an AR luciferase assay was performed. After washing cells with 1×PBS, 20 μL lysis buffer (25 mM Tris/phosphate, 4 mM EGTA, 1% Triton, 10% glycerol, 2 mM DTT) was added per well, incubated for 5 minutes with gentle shaking and store at −80° C. On the day of assay, the plates were thawed to ambient temperature and 80 μL of assay buffer (25 mM glycylglycine, 15 mM MgCl2. 5 mM ATP, 0.1 mg/ml BSA) was added to each well. Plates are then processed on a microplate reader (POLARstar Omega) by injecting 100 μL of 1 mM D-luciferin per well, followed by chemiluminescence measurement of 3 seconds at onset of injection. Luciferase activity was determined, measured, and normalized to Relative Light Units (RLU). AR reporter gene activity reduction values were calculated as follows: AR reporter gene activity=1−(average signal (treatment group)/average signal (treatment group without drug).

Data set [4] has as its system normal Human Adult Primary Epidermal Keratinocyte cell line. As to the kind of experiment: Keratinocyte cell viability (Trypan Blue exclusion, Example 10). The settings on record: keratinocytes, 1.0 nM DHT, 24 hours.
Protocol: For the Keratinocyte assay, normal Human Adult Primary Epidermal Keratinocyte cell line (ATCC PCS-200-011) was maintained in EPIUFE® Medium, with 60 μM calcium (Thermo MEPISOOCA) supplemented with Human Keratinocyte Growth Supplement, 100 U/mL penicillin, and 100 μg/mL streptomycin at 37° C. with 5% C02. For experiments, cells were seeded at 70% confluence per well in 100 μL of medium in 96-well plates. […] After 16 hours, medium was removed and replaced with dosing medium.
A 5α-Androstan-17β-ol-3-one (DHT) stock solution was prepared at 1,000× in ethanol. […] Dosing medium was prepared at the time of treatment by serial diluting stock solution into medium. Ethanol concentrations in media never exceeded 0.1%. […] Negative control wells contained 100 μL medium/well with 1 μL of ethanol/mL of medium and an appropriate amount of DMSO. Each plate also contained 1.0 nM DHT with an ARE or without an ARE as a positive control. Cells were incubated 24 hours at 37° C. without CO2.
as §7
The subject of data set [5] is MDA-kb2 mammary gland breast cancer cell line. As to the kind of experiment: MDA-kb2 cell viability (Trypan Blue exclusion). Particulars: MDA-kb2, 1.0 nM DHT, 24 hours.
Protocol: as §5, §6, §7
Data set [6] has as its target T1, androgen receptor (AR) (Homo sapiens, UniProt P10275).
T1 construct: human keratinocytes transfected with an AR luciferase reporter gene; endogenous in cells; host or cells: normal human adult primary epidermal keratinocytes (ATCC PCS-200-011)
T1 sequence (P10275 1-920): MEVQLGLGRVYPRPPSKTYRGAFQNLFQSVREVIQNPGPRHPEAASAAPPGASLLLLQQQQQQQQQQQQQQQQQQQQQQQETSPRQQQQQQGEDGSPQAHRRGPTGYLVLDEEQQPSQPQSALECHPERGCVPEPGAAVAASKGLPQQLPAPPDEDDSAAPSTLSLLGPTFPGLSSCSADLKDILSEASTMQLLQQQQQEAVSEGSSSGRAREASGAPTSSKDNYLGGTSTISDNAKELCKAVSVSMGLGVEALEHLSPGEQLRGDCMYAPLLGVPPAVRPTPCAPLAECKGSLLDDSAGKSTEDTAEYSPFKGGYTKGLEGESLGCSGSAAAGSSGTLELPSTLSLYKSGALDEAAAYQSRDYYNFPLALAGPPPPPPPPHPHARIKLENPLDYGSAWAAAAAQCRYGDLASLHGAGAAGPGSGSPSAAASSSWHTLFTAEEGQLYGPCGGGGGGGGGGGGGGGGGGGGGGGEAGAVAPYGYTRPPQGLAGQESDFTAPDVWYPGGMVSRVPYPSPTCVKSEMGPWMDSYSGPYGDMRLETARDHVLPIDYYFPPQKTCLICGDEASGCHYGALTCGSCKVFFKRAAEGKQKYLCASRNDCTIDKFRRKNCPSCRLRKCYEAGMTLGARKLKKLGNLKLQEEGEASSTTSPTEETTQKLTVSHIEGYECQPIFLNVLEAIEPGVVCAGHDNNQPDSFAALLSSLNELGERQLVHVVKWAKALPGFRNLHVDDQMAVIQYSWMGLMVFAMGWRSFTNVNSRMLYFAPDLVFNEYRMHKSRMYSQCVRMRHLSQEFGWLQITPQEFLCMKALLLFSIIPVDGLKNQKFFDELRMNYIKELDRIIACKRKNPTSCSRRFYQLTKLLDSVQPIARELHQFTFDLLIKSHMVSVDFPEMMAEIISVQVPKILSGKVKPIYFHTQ
As to the kind of experiment: Keratinocyte AR luciferase reporter gene assay (Example 10). The settings on record: keratinocytes, 1.0 nM DHT, 24 hours, read-out: Gene Activity Reduction. It is filed as cell-based. The method, then:
as §1, §2
For orientation: Reporter assays use an easily measured gene product as a stand-in for the process of interest.

Data set [7] deals with T1, androgen receptor (AR). Briefly: Keratinocyte AR protein level ELISA (Example 10). The settings on record: 24 h, keratinocytes, AR protein level by ELISA, read-out: AR Reduction. It is filed as cell-based. The method, then:
as §1
To assess levels of AR, an ELISA was performed.

Data set [8] concerns the target T1, androgen receptor (AR). Briefly: Keratinocyte AR Reporter Gene Assay, 24 and 72 hours continuous exposure (Example 12). In kind it is cell-based. Particulars: keratinocytes. The protocol:
as §2
This example illustrates how to determine the inhibitory activity of an ARE disclosed herein using a cell-based androgen receptor transcriptional reporter assay using primary human keratinocytes.
Results were analyzed for IC50 and IC90 values in GraphPad Prism using a four-parameter logistic curve equation. Bottom constraints were set to 1 (level of uninduced control).

A short description of data set [9]: Hamster Skin Penetration Assays. The settings on record: 8-hour time point.
Protocol: The applied formulation dose for each sample was 10.0 μL and each sample was run in four replicates. The samples were evaluated at the 8-hour time point for compound absorption in epidermal and dermal layers and penetration into receptor medium.

Each structure is given as a SMILES string. pIC50: −log10 of the molar value. Like-named read-outs stand apart in the source and are kept apart here. Some results are limits rather than exact numbers.

Protocol for in vitro: as §3, §4

For the molecule `O=C(Nc1ccc([N+](=O)[O-])cc1Cl)c1cc(Cl)ccc1O` [Niclosamide], the half-inhibitory concentration (IC50) at 72 h in the data set “in vitro” was less than 0.2 µM. In addition, the “Cell Viability” value in [1] (0.62 μM) was determined as 34.13 ± 2.99; in [1] (1.85 μM), 30.65 ± 5.98; in data set [1] (5.56 μM), 25.07 ± 3.81; in [1] (16.67 μM), 15.93 ± 7.45; in data set [1] (50 μM), 0.20 ± 6.09.

`CC12CCC(=O)C=C1C[C@@H](SC(=O)COCCOCCNC(=O)CC13CC4CC(CC(C4)C1)C3)C1C2CCC2(C)C1CC[C@@]21CCC(=O)O1` (stereo partly shown) [SPG-004]: the “Cell Viability” value in [2] (0.1 μM) came to 97%. For the same molecule, the “Cell Viability” value in [2] (1 μM) worked out at 98%. In [2] (3 μM), the “Cell Viability” value turned out to be 99%. The “Cell Viability” value in data set [2] (10 μM) is recorded as 98%. For the same molecule, on androgen receptor (AR) [3], the inhibition at 0.1 µM is 11%, the inhibition at 1 µM was determined as 22%, the inhibition at 3 µM amounted to 36% and the inhibition at 10 µM was determined as 42%.

`CC(=O)N1CCN(c2ccc(OC[C@H]3CO[C@](Cn4ccnc4)(c4ccc(Cl)cc4Cl)O3)cc2)CC1` (racemic) [SPG-002, Ketoconazole] showed a 50% inhibitory concentration (IC50) at 72 h in the data set “in vitro” of 11 µM. Further, the “Cell Viability” value in data set [4] (0.1 μM) is 95%; in data set [4] (3.0 μM), 94%; in data set [4] (10 μM), 95%; in data set [5] (0.1 μM), 97%; in data set [1] (0.62 μM), 93.61 ± 3.38; in data set [1] (1.85 μM) it was 90.96 ± 2.34. For the same molecule, the “Cell Viability” value in data set [1] (5.56 μM) was 71.22 ± 0.88; in data set [1] (16.67 μM) it was 41.59 ± 1.76; in data set [1] (50 μM), 7.29 ± 12.16.

On to `O=C(CC12CC3CC(CC(C3)C1)C2)N1CCN(c2ccc(OC[C@H]3CO[C@](Cn4ccnc4)(c4ccc(Cl)cc4Cl)O3)cc2)CC1` [SPG-006], for which the inhibition at 0.1 µM on androgen receptor (AR) [6] (0.1 μM) was determined as 8%; at androgen receptor (AR) [7] (0.1 μM) it was 1%. For the same molecule, the values for the inhibition at 1 µM at androgen receptor (AR) [6] (1.0 μM) and at androgen receptor (AR) [7] (1.0 μM) were 19% and 5%, respectively. In addition, the inhibition at 3 µM at androgen receptor (AR) [6] (3.0 μM) is 28%; at androgen receptor (AR) [7] (3.0 μM), 20%. Further, the values for the inhibition at 10 µM at androgen receptor (AR) [6] (10 μM) and at androgen receptor (AR) [7] (10 μM) were 48% and 37%, respectively. Further, the “Cell Viability” value in data set [4] (0.1 μM) came out at 93%; in data set [4] (1.0 μM), 94%; in [4] (3.0 μM), 94%; in data set [4] (10 μM) it was 94%.

For `Cc1ncsc1-c1ccc([C@H](C)NC(=O)[C@@H]2C[C@@H](O)CN2C(=O)[C@@H](NC(=O)COCC(=O)N2CCN(c3ccc(OC[C@H]4CO[C@](Cn5ccnc5)(c5ccc(Cl)cc5Cl)O4)cc3)CC2)C(C)(C)C)cc1` [SPG-007], at androgen receptor (AR) [8] (24-hr Treatment), the pIC50 is 5.34, the IC90 worked out at 73.8 µM and the “Maximum Inhibition” value is 67%. Besides, on androgen receptor (AR) [8] (72-hr Treatment), the pIC50 is 5.82, the 90% effect level (IC90) was put at 22.2 µM and the “Maximum Inhibition” value came to 80%.

As to `CC(=O)S[C@@H]1CC2=CC(=O)CC[C@]2(C)[C@H]2CC[C@@]3(C)[C@@H](CC[C@@]34CCC(=O)O4)[C@H]12` [SPG-001, Spironolactone], the IC50 at 72 h in “in vitro” came out at 50 µM. The “skin absorption (in words)” value in [9] is reported as “good amount”. In data set [9], the “skin penetration (in words)” value is reported as “good amount”. In addition, the “Cell Viability” value came to 92% in [4] (0.1 μM); 94% in [4] (1.0 μM); 92% in data set [4] (3.0 μM); 95% in [4] (10 μM); 99% in [5] (0.1 μM); 98% in data set [5] (1.0 μM). For the same molecule, the “Cell Viability” value in data set [5] (3.0 μM) is given as 98%; in [5] (10 μM), 98%; in [1] (0.62 μM), 113.05 ± 1.09; in data set [1] (1.85 μM) it was 108.09 ± 1.79; in data set [1] (5.56 μM) it was 99.27 ± 1.50; in data set [1] (16.67 μM), 82.73 ± 1.34. Moreover, the “Cell Viability” value in data set [1] (50 μM) is given as 58.33 ± 2.39.

With `Cc1ncsc1-c1ccc([C@H](C)NC(=O)[C@@H]2C[C@@H](O)CN2C(=O)[C@@H](NC(=O)COCCOCCOCC(=O)N2CCN(c3ccc(OC[C@H]4CO[C@](Cn5ccnc5)(c5ccc(Cl)cc5Cl)O4)cc3)CC2)C(C)(C)C)cc1` [SPG-008], on androgen receptor (AR) [8] (24-hr Treatment), the negative-log IC50 (pIC50) was 5.48, the concentration for an effect of 90% (IC90) was 8.4 µM and the “Maximum Inhibition” value was found to be 94%. On androgen receptor (AR) [8] (72-hr Treatment), the pIC50 was 5.62, the 90% effect concentration (IC90) worked out at 7.86 µM and the “Maximum Inhibition” value stood at 94%.

By IC50 is commonly meant the midpoint of a concentration-inhibition curve. A higher IC50 goes with weaker potency. In general, pIC50 refers to −log10 of the IC50, conventionally taken in molar units. Lower therefore signals a large IC50. By IC90 is commonly meant the concentration needed for an effect of 90%.

The values are drawn from patent US12319681B2, “Tripartite androgen receptor eliminators, methods and uses thereof” (SPG Therapeutics, Inc., priority 2017, dated 2025).
